Data published in ChEMBL document CHEMBL3877319, “Synthesis of Ofornine mimics from natural product l-vasicine as anti-hypertensive agents” (Bioorg Med Chem, 2017).

Experiments:
Mus musculus [1] = experiment: Acute toxicity in Swiss mouse assessed as mean corpuscular hemoglobin up to 2000 mg/kg, po measured on day 14 post dose (reference value: 13.78 +/- 5.29 pg); type: organism-based; settings: in vivo
Mus musculus [2] = experiment: Acute toxicity in Swiss mouse assessed as cholesterol level in serum up to 2000 mg/kg, po measured on day 14 post dose (reference value: […]); type: organism-based; settings: in vivo
Mus musculus [3] = experiment: Acute toxicity in Swiss mouse assessed as total protein level in serum up to 2000 mg/kg, po measured on day 14 post dose (reference value: 4.844 +/- 0.222 g/dl); type: organism-based; settings: in vivo
Mus musculus [4] = experiment: Acute toxicity in Swiss mouse assessed as effect on feed up to 2000 mg/kg, po measured up to 13 days post dose; type: organism-based; settings: in vivo, 312 h
Rattus norvegicus [5] = experiment: Anti-hypertensive activity in Wistar rat assessed as systolic blood pressure at 10 mg/kg, iv after 30 mins (reference value: 110 to 124.6 mmHg); type: functional
Mus musculus [6] = experiment: Acute toxicity in Swiss mouse assessed as serum urea level up to 2000 mg/kg, po measured on day 14 post dose (reference value: 55.157 +/- 2.769 mg/dl); type: organism-based; settings: in vivo
Mus musculus [7] = experiment: Acute toxicity in Swiss mouse assessed as AST level in serum up to 2000 mg/kg, po measured on day 14 post dose (reference value: 162.53 +/- 5.455 IU/L); type: organism-based; settings: in vivo
Mus musculus [8] = experiment: Acute toxicity in Swiss mouse assessed as serum triglyceride level up to 2000 mg/kg, po measured on day 14 post dose (reference value: […]); type: organism-based; settings: in vivo
Mus musculus [9] = experiment: Acute toxicity in Swiss mouse assessed as lymphocytes level up to 2000 mg/kg, po measured on day 14 post dose (reference value: 79.433%); type: organism-based; settings: in vivo
Rattus norvegicus [10] = experiment: Anti-hypertensive activity in Wistar rat assessed as systolic blood pressure at 10 mg/kg, iv after 5 mins (reference value: 110 to 124.6 mmHg); type: functional
Rattus norvegicus [11] = experiment: Anti-hypertensive activity in Wistar rat assessed as diastolic blood pressure at 10 mg/kg, iv after 60 mins (reference value: 77.15 to 94.4 mmHg); type: functional
Rattus norvegicus [12] = experiment: Anti-hypertensive activity in Wistar rat assessed as diastolic blood pressure at 10 mg/kg, iv after 5 mins (reference value: 77.15 to 94.4 mmHg); type: functional
Mus musculus [13] = experiment: Acute toxicity in Swiss mouse assessed as uric acid level in serum up to 2000 mg/kg, po measured on day 14 post dose (reference value: […]); type: organism-based; settings: in vivo
Mus musculus [14] = experiment: Acute toxicity in Swiss mouse assessed as RBC count up to 2000 mg/kg, po measured on day 14 post dose (reference value: 8.97 +/- 3.15 10^6/microL); type: organism-based; settings: in vivo
Mus musculus [15] = experiment: Acute toxicity in Swiss mouse assessed as WBC count up to 2000 mg/kg, po measured on day 14 post dose (reference value: 8.35 +/- 4.53 10^3/microL); type: organism-based; settings: in vivo
Rattus norvegicus [16] = experiment: Anti-hypertensive activity in Wistar rat assessed as diastolic blood pressure at 10 mg/kg, iv after 30 mins (reference value: 77.15 to 94.4 mmHg); type: functional
Mus musculus [17] = experiment: Acute toxicity in Swiss mouse assessed as platelet level up to 2000 mg/kg, po measured on day 14 post dose (reference value: 1542.71 +/- 474.34 10^3/microL); type: organism-based; settings: in vivo
Mus musculus [18] = experiment: Acute toxicity in Swiss mouse assessed as hemoglobin level up to 2000 mg/kg, po measured on day 14 post dose (reference value: 12.342 +/- 4.42 g/dl); type: organism-based; settings: in vivo
Rattus norvegicus [19] = experiment: Anti-hypertensive activity in Wistar rat assessed as systolic blood pressure at 10 mg/kg, iv after 15 mins (reference value: 110 to 124.6 mmHg); type: functional
Mus musculus [20] = experiment: Acute toxicity in Swiss mouse assessed as eosinophil level up to 2000 mg/kg, po measured on day 14 post dose (reference value: 2.233%); type: organism-based; settings: in vivo
Mus musculus [21] = experiment: Acute toxicity in Swiss mouse assessed as change in body weight up to 2000 mg/kg, po measured once in a week up to 13 days post dose; type: organism-based; settings: in vivo, 312 h
Mus musculus [22] = experiment: Acute toxicity in Swiss mouse assessed as ALT level in serum up to 2000 mg/kg, po measured on day 14 post dose (reference value: 49.87 +/- 3.277 IU/L); type: organism-based; settings: in vivo
Mus musculus [23] = experiment: Acute toxicity in Swiss mouse assessed as monocytes level up to 2000 mg/kg, po measured on day 14 post dose (reference value: 3.66%); type: organism-based; settings: in vivo
Rattus norvegicus [24] = experiment: Anti-hypertensive activity in Wistar rat assessed as systolic blood pressure at 10 mg/kg, iv after 150 mins (reference value: 110 to 124.6 mmHg); type: functional
Mus musculus [25] = experiment: Acute toxicity in Swiss mouse assessed as effect on water consumption up to 2000 mg/kg, po measured up to 13 days post dose; type: organism-based; settings: in vivo, 312 h
Mus musculus [26] = experiment: Acute toxicity in Swiss mouse assessed as hematocrit up to 2000 mg/kg, po measured on day 14 post dose (reference value: 40.114 +/- 14.74%); type: organism-based; settings: in vivo
Rattus norvegicus [27] = experiment: Anti-hypertensive activity in Wistar rat assessed as systolic blood pressure at 10 mg/kg, iv after 60 mins (reference value: 110 to 124.6 mmHg); type: functional
Mus musculus [28] = experiment: Acute toxicity in Swiss mouse assessed as serum creatinine level up to 2000 mg/kg, po measured on day 14 post dose (reference value: 0.418 +/- 0.0259 mg/dl); type: organism-based; settings: in vivo
Rattus norvegicus [29] = experiment: Anti-hypertensive activity in Wistar rat assessed as systolic blood pressure at 10 mg/kg, iv after 120 mins (reference value: 110 to 124.6 mmHg); type: functional
Rattus norvegicus [30] = experiment: Anti-hypertensive activity in Wistar rat assessed as diastolic blood pressure at 10 mg/kg, iv after 150 mins (reference value: 77.15 to 94.4 mmHg); type: functional
Rattus norvegicus [31] = experiment: Anti-hypertensive activity in Wistar rat assessed as diastolic blood pressure at 10 mg/kg, iv after 180 mins (reference value: 77.15 to 94.4 mmHg); type: functional
Mus musculus [32] = experiment: Acute toxicity in Swiss mouse assessed as mortality up to 2000 mg/kg, po measured up to 13 days post dose; type: organism-based; settings: in vivo, 312 h
Rattus norvegicus [33] = experiment: Anti-hypertensive activity in Wistar rat assessed as diastolic blood pressure at 10 mg/kg, iv after 15 mins (reference value: 77.15 to 94.4 mmHg); type: functional
Mus musculus [34] = experiment: Acute toxicity in Swiss mouse assessed as change in general appearance up to 2000 mg/kg, po measured up to 13 days post dose; type: organism-based; settings: in vivo, 312 h
Rattus norvegicus [35] = experiment: Anti-hypertensive activity in Wistar rat assessed as diastolic blood pressure at 10 mg/kg, iv after 120 mins (reference value: 77.15 to 94.4 mmHg); type: functional
Mus musculus [36] = experiment: Acute toxicity in Swiss mouse assessed as neutrophil level up to 2000 mg/kg, po measured on day 14 post dose (reference value: 14.56%); type: organism-based; settings: in vivo
Mus musculus [37] = experiment: Acute toxicity in Swiss mouse assessed as basophil level up to 2000 mg/kg, po measured on day 14 post dose (reference value: 0.1%); type: organism-based; settings: in vivo
Mus musculus [38] = experiment: Acute toxicity in Swiss mouse assessed as mean corpuscular volume up to 2000 mg/kg, po measured on day 14 post dose (reference value: 44.85 +/- 17.65 fL); type: organism-based; settings: in vivo
Rattus norvegicus [39] = experiment: Anti-hypertensive activity in Wistar rat assessed as systolic blood pressure at 10 mg/kg, iv after 180 mins (reference value: 110 to 124.6 mmHg); type: functional
Rattus norvegicus [40] = experiment: Anti-hypertensive activity in iv dosed Wistar rat assessed as decrease in blood pressure up to 180 mins; type: functional, organism-based
Mus musculus [41] = experiment: Acute toxicity in Swiss mouse assessed as serum glucose level up to 2000 mg/kg, po measured on day 14 post dose (reference value: 105.78 +/- 5.217 mg/dl); type: organism-based; settings: in vivo

O=C(c1ccccc1Nc1ccncc1)N1CC[C@H](O)C1
Activity (Mus musculus [1]): 13.77 pg
Activity (Mus musculus [2]): 83 mg/dL
Activity (Mus musculus [3]): 5.224 g/dL
Activity (Mus musculus [4]): Non-Toxic
Activity (Rattus norvegicus [5]): 80.19 mmHg
Activity (Mus musculus [6]): 54.885 mg/dL
Activity (Mus musculus [7]): 145.84 IU/L
Activity (Mus musculus [8]): 89.6 mg/dL
Activity (Mus musculus [9]): 84.514%
Activity (Rattus norvegicus [10]): 88 mmHg
Activity (Rattus norvegicus [11]): 64.09 mmHg
Activity (Rattus norvegicus [12]): 66.01 mmHg
Activity (Mus musculus [13]): 2.81 mg/dL
Activity (Mus musculus [14]): 9.684 ×10⁶ /uL
Activity (Mus musculus [15]): 10.185 ×10³ /uL
Activity (Rattus norvegicus [16]): 62.55 mmHg
Activity (Mus musculus [17]): 1458.42 ×10³ /uL
Activity (Mus musculus [18]): 13.342 g/dL
Activity (Rattus norvegicus [19]): 82.41 mmHg
Activity (Mus musculus [20]): 3.457%
Activity (Mus musculus [21]): Non-Toxic
Activity (Mus musculus [22]): 50.587 IU/L
Activity (Mus musculus [23]): 3.128%
Activity (Rattus norvegicus [24]): 87.13 mmHg
Activity (Mus musculus [25]): Non-Toxic
Activity (Mus musculus [26]): 40.1%
Activity (Rattus norvegicus [27]): 79.29 mmHg
Activity (Mus musculus [28]): 0.435 mg/dL
Activity (Rattus norvegicus [29]): 85.46 mmHg
Activity (Rattus norvegicus [30]): 73 mmHg
Activity (Rattus norvegicus [31]): 79.06 mmHg
Activity (Mus musculus [32]): Non-Toxic
Activity (Rattus norvegicus [33]): 64.33 mmHg
Activity (Mus musculus [34]): Non-Toxic
Activity (Rattus norvegicus [35]): 69.81 mmHg
Activity (Mus musculus [36]): 8.828%
Activity (Mus musculus [37]): 0.0714%
Activity (Mus musculus [38]): 41.3 fL
Activity (Rattus norvegicus [39]): 108.8 mmHg
Activity (Rattus norvegicus [40]): Dose-dependent effect
Activity (Mus musculus [41]): 111.51 mg/dL

O=C(c1ccccc1-n1cc(-c2ccc(F)cc2)nn1)N1CC[C@@H](O)C1
Activity (Rattus norvegicus [5]): 118.9 mmHg
Activity (Rattus norvegicus [10]): 103.3 mmHg
Activity (Rattus norvegicus [11]): 95 mmHg
Activity (Rattus norvegicus [12]): 76.5 mmHg
Activity (Rattus norvegicus [16]): 77.9 mmHg
Activity (Rattus norvegicus [19]): 120.1 mmHg
Activity (Rattus norvegicus [24]): 121.8 mmHg
Activity (Rattus norvegicus [27]): 122.4 mmHg
Activity (Rattus norvegicus [29]): 121.6 mmHg
Activity (Rattus norvegicus [30]): 88.8 mmHg
Activity (Rattus norvegicus [31]): 90.8 mmHg
Activity (Rattus norvegicus [33]): 74.8 mmHg
Activity (Rattus norvegicus [35]): 88 mmHg
Activity (Rattus norvegicus [39]): 121.5 mmHg
